How the values were obtained:
[1] = molecular target: T1, KRas^G12D (Homo sapiens, UniProt P01116, G12D); experiment: KRas Binding Assay (TR-FRET displacement), KRas G12D; conditions: TR-FRET tracer displacement
T1 construct: corresponding to amino acids 1-169, produced at Accelegan Inc; biotin (biotinylated); purchased Accelegan Inc
Description: (§1) This Example illustrates that exemplary compounds of the present invention bind to KRas and are capable of displacing a labeled tracer ligand occupying the KRas binding site. KRas^WT, KRas^G12A, KRas^G12C, KRas^G12D, KRas^G12R, KRas^G12S, KRas^G12V, KRas^G13D, or KRas^Q61H was used in the assay.
(§2) The ability of a compound to bind to KRas was measured using a TR-FRET displacement assay. Biotinylated KRas (corresponding to amino acids 1-169, produced at Accelegan Inc.) was incubated with custom made Cy5 labelled tracer, terbium streptavidin (Cisbio Inc.) and compound (1% DMSO final) in buffer (50 mM HEPES, pH 7.5, 5 mM MgCl2, 0.005% Tween-20 and 1 mM DTT). After a 60-minute incubation at room temperature, the reaction was measured using a BMG LABTECH CLARIO star Plus via TR-FRET. […] The POC values were fit to a 4-parameter IC50 equation and the IC50 value reported.

[2] = molecular target: T2, KRas^G12V (Homo sapiens, UniProt P01116, G12V); experiment: KRas Binding Assay (TR-FRET displacement), KRas G12V; conditions: TR-FRET tracer displacement
T2 construct: corresponding to amino acids 1-169, produced at Accelegan Inc; biotin (biotinylated); purchased Accelegan Inc
Description: as §1, §2

[3] = molecular target: T3, KRas^G12R (Homo sapiens, UniProt P01116, G12R); experiment: KRas Binding Assay (TR-FRET displacement), KRas G12R; conditions: TR-FRET tracer displacement
T3 construct: corresponding to amino acids 1-169, produced at Accelegan Inc; biotin (biotinylated); purchased Accelegan Inc
Description: as §1, §2

[4] = molecular target: T4, KRas^WT (Homo sapiens, UniProt P01116); experiment: KRas Binding Assay (TR-FRET displacement), KRas WT; conditions: TR-FRET tracer displacement
T4 construct: corresponding to amino acids 1-169, produced at Accelegan Inc; biotin (biotinylated); purchased Accelegan Inc
Description: as §1, §2

[5] = molecular target: T5, KRas^G13D (Homo sapiens, UniProt P01116, G13D); experiment: KRas Binding Assay (TR-FRET displacement), KRas G13D; conditions: TR-FRET tracer displacement
T5 construct: corresponding to amino acids 1-169, produced at Accelegan Inc; biotin (biotinylated); purchased Accelegan Inc
Description: as §1, §2

[6] = molecular target: T6, KRas^Q61H (Homo sapiens, UniProt P01116, Q61H); experiment: KRas Binding Assay (TR-FRET displacement), KRas Q61H; conditions: TR-FRET tracer displacement
T6 construct: corresponding to amino acids 1-169, produced at Accelegan Inc; biotin (biotinylated); purchased Accelegan Inc
Description: as §1, §2

[7] = molecular target: T7, KRas^G12A (Homo sapiens, UniProt P01116, G12A); experiment: KRas Binding Assay (TR-FRET displacement), KRas G12A; conditions: TR-FRET tracer displacement
T7 construct: corresponding to amino acids 1-169, produced at Accelegan Inc; biotin (biotinylated); purchased Accelegan Inc
Description: as §1, §2

[8] = molecular target: T8, KRas^G12C (Homo sapiens, UniProt P01116, G12C); experiment: KRas Binding Assay (TR-FRET displacement), KRas G12C; conditions: TR-FRET tracer displacement
T8 construct: corresponding to amino acids 1-169, produced at Accelegan Inc; biotin (biotinylated); purchased Accelegan Inc
Description: as §1, §2

[9] = molecular target: T9, KRas^G12S (Homo sapiens, UniProt P01116, G12S); experiment: KRas Binding Assay (TR-FRET displacement), KRas G12S; conditions: TR-FRET tracer displacement
T9 construct: corresponding to amino acids 1-169, produced at Accelegan Inc; biotin (biotinylated); purchased Accelegan Inc
Description: as §1, §2

[10] = tested on: KRas-mediated Phosphorylation of ERK in AsPC-1 cells; experiment: HTRF pERK assay, AsPC-1 cells; format: cell-based; conditions: Homo sapiens, ASPC1, 3 hrs compound incubation, read-out: Inhibition (HTRF IC50 nM) of KRas-mediated Phosphorylation of ERK, AsPC-1
Description: (§3) • Day 1: Seed 6,000 cells/well-25 μl/well in 384-well white solid bottom plate; RPM1_10% FBS.
(§4) • 1. To harvest cells from flask using 0.05% Trypsin/EDTA solution. Add 10 mL of media to stop trypsinizing. Pipette the cells into a conical bottom 50 mL centrifuge tube and centrifuge 5 min×1000 rpm. • 2. Re-suspend the cell pellet in media, take a cell count, and then adjust the cell density using fresh media. • 3. Seed 6,000 cells into cell culture plate with 50 μL media. The • 4. Incubate cell plate overnight in a 37° C., 5% CO2 incubator.
(§5) • 1. Use Tecan to complete the compound addition. Compounds start from 10 uM top, 3-fold dilution, and 10 doses. The final DMSO concentration is 0.8%. Dispensed 0.2 uM Trametinib as Min control. • 2. Incubate cell plate for 3 hrs in the incubator. Detection with Cisbio pERK HTRF Kit • 1. Dilute 1 volume of 4× lysis buffer with 3 volumes of deionized water. Then, add 100× the blocking reagent. Keep lysis buffer on the ice. • 2. At the end of the compound treatment, flick-off the media. • 3. Add 35 μL of lysis buffer per well using a Multidrop Combi. Then place on a plate agitator shaking at 300 rpm at 4° C. for 40 mins. • 4. Make up the HTRF antibody buffer. For each assay plate, mix 50 μL of d2-conjugate antibody with 950 μL of detection buffer. Similarly, mix 50 μL of Cryptate antibody with 950 μL of detection buffer. Then mix the two diluted antibodies together. • 5. Dispense 3.4 μL the antibody buffer to wells of an empty assay plate. Seal the plate and centrifuge plate 30 sec×1000 rpm. • 6. At the end of the 4° C. lysis, centrifuge the lysate plates 3 mins×1500 rpm. • 7. Use the Bravo to transfer 13.6 μL of lysate from cell culture plate to assay plate. Then incubate assay plate for 2 hrs at room temperature. • 8. At the end of incubation, read plate on the Envision after centrifuging plate 30 sec×1000 rpm.

[11] = tested on: KRas-mediated Phosphorylation of ERK in H727 cells; experiment: HTRF pERK assay, H727 cells; format: cell-based; conditions: Homo sapiens, NCI-H727, 3 hrs compound incubation, read-out: Inhibition (HTRF IC50 nM) of KRas-mediated Phosphorylation of ERK, H727
Description: as §3, §4, §5

[12] = tested on: KRas-mediated Phosphorylation of ERK in MKN1 cells; experiment: HTRF pERK assay, MKN1 cells; format: cell-based; conditions: Homo sapiens, MKN-1, 3 hour compound incubation, read-out: Inhibition (HTRF IC50 nM) of KRas-mediated Phosphorylation of ERK, MKN1
Description: Cisbio HTRF Advanced pERK Assay Catalog #64AERPEH • Cells: MKN1, PSN1
as §3

[13] = tested on: KRas-mediated Phosphorylation of ERK in H2009 cells; experiment: HTRF pERK assay, H2009 cells; format: cell-based; conditions: Homo sapiens, NCI-H2009; H2009 cells by column count (c8); may be PSN1; read-out: Inhibition (HTRF IC50 nM) of KRas-mediated Phosphorylation of ERK, H2009
[14] = tested on: KRas-mediated Phosphorylation of ERK in HCT116 cells; experiment: HTRF pERK assay, HCT116 cells; format: cell-based; conditions: Homo sapiens, HCT-116, 3 hrs compound incubation, read-out: Inhibition (HTRF IC50 nM) of KRas-mediated Phosphorylation of ERK, HCT116
Description: as §3, §4
as §5, with “Similarly, mix 50 μL of Cryptate antibody with 950 μL of detection buffer. Then mix the two diluted antibodies together. • 5. Dispense 3.4 μL the antibody buffer to wells of an empty assay plate. Seal the plate and centrifuge plate 30 sec×1000 rpm. • 6. At the end of the 4° C. lysis, centrifuge the lysate plates 3 mins×1500 rpm. • 7. Use the Bravo to transfer 13.6 μL of lysate from cell culture plate to assay plate. Then incubate assay plate for 2 hrs at room temperature. • 8.” left out

[15] = tested on: KRas-mediated Phosphorylation of ERK in A549 cells; experiment: HTRF pERK assay, A549 cells; format: cell-based; conditions: Homo sapiens, 3 hrs compound incubation, read-out: Inhibition (HTRF IC50 nM) of KRas-mediated Phosphorylation of ERK, A549
Description: as §3, §4
as §5, with “Similarly, mix 50 μL of Cryptate antibody with 950 μL of detection buffer. Then mix the two diluted antibodies together. • 5. Dispense 3.4 μL the antibody buffer to wells of an empty assay plate. Seal the plate and centrifuge plate 30 sec×1000 rpm. • 6. At the end of the 4° C. lysis, centrifuge the lysate plates 3 mins×1500 rpm. • 7. Use the Bravo to transfer 13.6 μL of lysate from cell culture plate to assay plate. Then incubate assay plate for 2 hrs at room temperature. • 8.” left out

[16] = tested on: KRas-mediated Phosphorylation of ERK in H460 cells; experiment: HTRF pERK assay, H460 cells; format: cell-based; conditions: Homo sapiens, NCI-H460, 3 hrs compound incubation, read-out: Inhibition (HTRF IC50 nM) of KRas-mediated Phosphorylation of ERK, H460
Description: as §3, §4
as §5, with “Similarly, mix 50 μL of Cryptate antibody with 950 μL of detection buffer. Then mix the two diluted antibodies together. • 5. Dispense 3.4 μL the antibody buffer to wells of an empty assay plate. Seal the plate and centrifuge plate 30 sec×1000 rpm. • 6. At the end of the 4° C. lysis, centrifuge the lysate plates 3 mins×1500 rpm. • 7. Use the Bravo to transfer 13.6 μL of lysate from cell culture plate to assay plate. Then incubate assay plate for 2 hrs at room temperature. • 8.” left out

[17] = tested on: KRas-mediated Phosphorylation of ERK in H358 cells; experiment: HTRF pERK assay, H358 cells; format: cell-based; conditions: Homo sapiens, NCI-H358, 3 hrs compound incubation, read-out: Inhibition (HTRF IC50 nM) of KRas-mediated Phosphorylation of ERK, H358
Description: as §3, §4
as §5, with “Similarly, mix 50 μL of Cryptate antibody with 950 μL of detection buffer. Then mix the two diluted antibodies together. • 5. Dispense 3.4 μL the antibody buffer to wells of an empty assay plate. Seal the plate and centrifuge plate 30 sec×1000 rpm. • 6. At the end of the 4° C. lysis, centrifuge the lysate plates 3 mins×1500 rpm. • 7. Use the Bravo to transfer 13.6 μL of lysate from cell culture plate to assay plate. Then incubate assay plate for 2 hrs at room temperature. • 8.” left out

T2 sequence (P01116 1-169 isoform P01116-2 G12V): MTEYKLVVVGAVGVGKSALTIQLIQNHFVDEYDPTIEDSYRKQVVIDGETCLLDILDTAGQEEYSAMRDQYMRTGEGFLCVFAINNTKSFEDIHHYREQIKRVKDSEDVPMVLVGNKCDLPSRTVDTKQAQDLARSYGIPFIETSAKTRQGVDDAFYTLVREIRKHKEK
T5 sequence (P01116 1-169 isoform P01116-2 G13D): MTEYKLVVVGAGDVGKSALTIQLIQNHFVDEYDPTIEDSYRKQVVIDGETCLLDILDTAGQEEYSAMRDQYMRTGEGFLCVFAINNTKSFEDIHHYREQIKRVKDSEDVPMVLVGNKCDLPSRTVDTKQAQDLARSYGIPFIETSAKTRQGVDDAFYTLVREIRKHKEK
T6 sequence (P01116 1-169 isoform P01116-2 Q61H): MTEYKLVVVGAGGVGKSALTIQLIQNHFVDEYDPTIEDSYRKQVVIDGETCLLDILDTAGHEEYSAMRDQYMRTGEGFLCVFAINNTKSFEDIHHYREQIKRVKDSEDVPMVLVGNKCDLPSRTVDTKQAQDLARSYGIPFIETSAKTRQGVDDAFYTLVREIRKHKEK
T8 sequence (P01116 1-169 isoform P01116-2 G12C): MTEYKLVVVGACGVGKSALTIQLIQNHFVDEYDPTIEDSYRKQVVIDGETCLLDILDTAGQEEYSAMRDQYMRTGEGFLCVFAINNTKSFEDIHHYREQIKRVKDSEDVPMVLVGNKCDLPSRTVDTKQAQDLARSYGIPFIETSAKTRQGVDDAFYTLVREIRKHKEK
T3 sequence (P01116 1-169 isoform P01116-2 G12R): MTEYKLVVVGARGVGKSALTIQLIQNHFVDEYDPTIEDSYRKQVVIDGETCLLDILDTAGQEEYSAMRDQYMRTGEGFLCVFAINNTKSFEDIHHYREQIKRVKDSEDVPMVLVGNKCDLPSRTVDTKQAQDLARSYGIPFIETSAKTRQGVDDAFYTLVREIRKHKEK
T4 sequence (P01116 1-169 isoform P01116-2): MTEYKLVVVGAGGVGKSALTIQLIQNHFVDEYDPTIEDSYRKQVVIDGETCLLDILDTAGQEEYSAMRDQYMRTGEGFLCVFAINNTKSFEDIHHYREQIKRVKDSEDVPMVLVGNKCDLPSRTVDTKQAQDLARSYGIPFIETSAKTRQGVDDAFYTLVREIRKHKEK
T1 sequence (P01116 1-169 isoform P01116-2 G12D): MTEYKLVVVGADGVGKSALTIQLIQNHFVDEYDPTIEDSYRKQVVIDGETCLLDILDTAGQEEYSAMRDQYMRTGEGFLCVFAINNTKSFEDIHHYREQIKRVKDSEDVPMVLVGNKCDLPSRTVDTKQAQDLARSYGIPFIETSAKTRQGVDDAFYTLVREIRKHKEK
T9 sequence (P01116 1-169 isoform P01116-2 G12S): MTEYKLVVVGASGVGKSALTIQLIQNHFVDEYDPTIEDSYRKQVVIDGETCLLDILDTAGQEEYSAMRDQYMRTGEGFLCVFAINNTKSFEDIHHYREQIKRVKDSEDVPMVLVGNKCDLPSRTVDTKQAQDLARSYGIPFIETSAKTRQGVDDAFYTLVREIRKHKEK
T7 sequence (P01116 1-169 isoform P01116-2 G12A): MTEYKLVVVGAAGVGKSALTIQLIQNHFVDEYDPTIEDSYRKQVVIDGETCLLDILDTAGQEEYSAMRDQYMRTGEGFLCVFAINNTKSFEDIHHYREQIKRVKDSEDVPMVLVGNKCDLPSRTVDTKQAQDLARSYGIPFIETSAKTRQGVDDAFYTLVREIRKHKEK

Row | Structure (SMILES) | IC50 [1] [nM] | IC50 [2] [nM] | IC50 [3] [nM] | IC50 [4] [nM] | IC50 [5] [nM] | IC50 [6] [nM] | IC50 [7] [nM] | IC50 [8] [nM] | IC50 [9] [nM] | IC50 [10] [nM] | IC50 [11] [nM] | IC50 [12] [nM] | IC50 [13] [nM] | IC50 [14] [nM] | IC50 [15] [nM] | IC50 [16] [nM] | IC50 [17] [nM]
1 | C[C@H](Oc1nc(-c2noc(C3(C)CCCc4sc(N)c(C#N)c43)n2)cc(N2C[C@H]3CC[C@@H](C2)N3)n1)[C@@H]1CCCN1C (stereo partly drawn) [Example 3, 4-(3-(6-((1R,5S)-3,8-diazabicyclo[3.2.1]octan-3-yl)-2-((S)-1-((S)-1-methylpyrrolidin-2-yl)ethoxy)pyrimidin-4-yl)-1,2,4-oxadiazol-5-yl)-2-amino-4-methyl-4,5,6,7-tetrahydrobenzo[b]thiophene-3-carbonitrile] | 18 | 767 | 728 | 195 | 315 | 656 | 879 | 1060 | 912 | 5940 | > 10000 | > 10000 | > 10000 |  |  |  | 
2 | C[C@H](Oc1nc(-c2cc(C3(C)CCCc4sc(N)c(C#N)c43)sn2)cc(N2CCCC3(CNS(=O)(=O)N3)C2)n1)[C@@H]1CCCN1C (stereo partly drawn) [Example 10, 2-amino-4-(3-(6-(2,2-dioxido-2-thia-1,3,7-triazaspiro[4.5]decan-7-yl)-2-((S)-1-((S)-1-methylpyrrolidin-2-yl)ethoxy)pyrimidin-4-yl)isothiazol-5-yl)-4-methyl-4,5,6,7-tetrahydrobenzo[b]thiophene-3-carbonitrile] | 3 | 4 | < 2 | 31 | 24 | 9 | 35 | 15 | 25 | 898 | 3900 | 10 | 9300 | 962 | 727 | 288 | 216
3 | C[C@H](Oc1nc(-c2noc(C3(C)CCCc4sc(N)c(C#N)c43)n2)cc(N2CCC[C@@](C)(O)C2)n1)[C@@H]1CCCN1C (stereo partly drawn) [Example 1, 2-amino-4-(3-(6-((R)-3-hydroxy-3-methylpiperidin-1-yl)-2-((S)-1-((S)-1-methylpyrrolidin-2-yl)ethoxy)pyrimidin-4-yl)-1,2,4-oxadiazol-5-yl)-4-methyl-4,5,6,7-tetrahydrobenzo[b]thiophene-3-carbonitrile] | 42 | 43 | 28 | 22 | 74 | 117 | 82 | 106 | 90 | 3740 | 6440 | 593 | > 10000 |  |  |  | 
4 | C[C@H](Oc1nc(-c2noc(C3(C)CCCc4sc(N)c(C#N)c43)n2)cc(N2CCOCC(C)(O)C2)n1)[C@@H]1CCCN1C (stereo partly drawn) [Example 13, 2-amino-4-(3-(6-(6-hydroxy-6-methyl-1,4-oxazepan-4-yl)-2-((S)-1-((S)-1-methylpyrrolidin-2-yl)ethoxy)pyrimidin-4-yl)-1,2,4-oxadiazol-5-yl)-4-methyl-4,5,6,7-tetrahydrobenzo[b]thiophene-3-carbonitrile] | 11 | 6 | 4 |  |  |  |  |  |  | 507 | 469 | 44 | > 10000 | 899 | 689 | 394 | 43
